Data set [1] deals with Epidermal growth factor receptor (Homo sapiens, UniProt P00533).
A short description of data set [2]: Metabolic stability to human liver microsomes assessed as half life. It counts as ADME, Microsome. In general terms: Microsomes from liver hold many membrane-bound enzymes, among them those of drug oxidation.
The nature of data set [3]: Solubility in aqueous buffer at pH 2.0. It counts as physicochemical.
A short description of data set [4]: Solubility in aqueous buffer at pH 7.4. It counts as physicochemical.
Data set [5] in a line: Oral bioavailability in rat at 10 mg/kg. It counts as ADME, organism-based. The conditions noted are these: in vivo.
Data set [6] can be described thus: Cmax in rat at 10 mg/kg. It counts as ADME, organism-based. On the set-up: dose 10 mg/kg. As to conditions: in vivo.
Data set [7] in a line: AUC in rat at 10 mg/kg. It counts as ADME, organism-based. Details: dose 10 mg/kg. The conditions noted are these: plasma.
The nature of data set [8]: Half life in rat at 10 mg/kg. It counts as ADME, organism-based. Details: dose 10 mg/kg. The conditions noted are these: in vivo.
The nature of data set [9]: Oral bioavailability in mouse at 10 mg/kg. It counts as ADME, organism-based. As to conditions: in vivo, read-out: ED15.
The nature of data set [10]: Cmax in mouse at 10 mg/kg. The conditions noted are these: in vivo. It counts as ADME, organism-based. On the set-up: dose 10 mg/kg.
Data set [11] in a line: AUC in mouse at 10 mg/kg. It counts as ADME, organism-based. Details: dose 10 mg/kg. As to conditions: plasma.
A short description of data set [12]: Half life in mouse at 10 mg/kg. It counts as ADME, organism-based. On the set-up: dose 10 mg/kg. The conditions noted are these: in vivo.
Data set [13] concerns the target Cyclin-dependent kinase 1 (Homo sapiens, UniProt P06493). The data set is described as follows: Inhibition of CDK1.

Each structure is given as a SMILES string. Converted amounts (≈) assume the structure as drawn. Where only a bound is given, the exact number is not on record here.

Epidermal growth factor receptor, sequence (P00533 whole entry): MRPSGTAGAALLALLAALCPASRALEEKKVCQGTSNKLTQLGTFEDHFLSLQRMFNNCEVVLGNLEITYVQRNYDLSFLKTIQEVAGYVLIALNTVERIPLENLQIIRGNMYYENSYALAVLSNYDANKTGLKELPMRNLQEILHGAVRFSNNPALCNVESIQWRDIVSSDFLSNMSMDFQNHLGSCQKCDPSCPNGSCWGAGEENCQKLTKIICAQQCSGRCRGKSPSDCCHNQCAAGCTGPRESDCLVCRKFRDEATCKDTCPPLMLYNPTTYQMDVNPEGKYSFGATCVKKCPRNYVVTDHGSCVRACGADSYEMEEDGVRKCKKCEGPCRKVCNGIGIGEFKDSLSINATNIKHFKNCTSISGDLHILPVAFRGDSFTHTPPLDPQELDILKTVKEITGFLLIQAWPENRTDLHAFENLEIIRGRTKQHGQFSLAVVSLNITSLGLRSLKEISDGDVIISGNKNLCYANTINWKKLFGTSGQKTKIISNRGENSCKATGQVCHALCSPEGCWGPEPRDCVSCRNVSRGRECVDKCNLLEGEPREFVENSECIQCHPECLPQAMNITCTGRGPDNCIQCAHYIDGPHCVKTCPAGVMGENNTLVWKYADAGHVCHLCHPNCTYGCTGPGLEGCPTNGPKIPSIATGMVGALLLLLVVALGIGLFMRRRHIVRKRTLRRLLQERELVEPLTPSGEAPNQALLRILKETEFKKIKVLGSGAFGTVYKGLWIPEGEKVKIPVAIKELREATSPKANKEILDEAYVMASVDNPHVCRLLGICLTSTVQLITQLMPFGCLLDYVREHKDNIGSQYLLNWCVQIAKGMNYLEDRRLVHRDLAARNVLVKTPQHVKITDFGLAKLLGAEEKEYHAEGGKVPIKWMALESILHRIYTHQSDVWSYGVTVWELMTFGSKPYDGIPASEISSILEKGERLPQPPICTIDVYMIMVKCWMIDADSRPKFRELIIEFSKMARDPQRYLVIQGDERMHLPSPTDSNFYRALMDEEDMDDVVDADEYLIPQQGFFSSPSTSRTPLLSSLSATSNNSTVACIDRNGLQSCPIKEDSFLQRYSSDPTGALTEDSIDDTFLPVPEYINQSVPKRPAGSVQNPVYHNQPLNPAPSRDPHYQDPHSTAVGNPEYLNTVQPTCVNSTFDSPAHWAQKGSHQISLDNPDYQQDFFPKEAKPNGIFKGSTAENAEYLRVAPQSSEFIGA
Cyclin-dependent kinase 1, sequence (P06493 whole entry): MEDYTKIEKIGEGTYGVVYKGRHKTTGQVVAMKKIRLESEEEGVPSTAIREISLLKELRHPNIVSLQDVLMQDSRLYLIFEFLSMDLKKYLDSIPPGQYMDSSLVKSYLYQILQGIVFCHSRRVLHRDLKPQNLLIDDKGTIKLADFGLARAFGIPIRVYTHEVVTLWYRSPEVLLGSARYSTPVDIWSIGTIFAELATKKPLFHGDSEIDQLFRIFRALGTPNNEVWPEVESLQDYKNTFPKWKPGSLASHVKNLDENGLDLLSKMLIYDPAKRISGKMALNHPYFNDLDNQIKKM

Broadly, the IC50 is the concentration needed to halve the response being measured. Take `NS(=O)(=O)c1ccc(Nc2nc3ncnc(Nc4cccc(Br)c4)c3s2)cc1`: half-maximal inhibition in data set [1] (IC50) required 10 nM.
The same measure, in the same setting: in the case of `NS(=O)(=O)c1ccc(Nc2nc3ncnc(Nc4ccc(N5CCOCC5)c(Cl)c4)c3s2)cc1` it was 3300 nM; in that of `COCCN(CCOC)S(=O)(=O)c1ccc(Nc2nc3ncnc(Nc4ccc(F)c(Cl)c4)c3s2)cc1`, 25 nM; in that of `Fc1ccc(Nc2ncnc3nc(Nc4ccc(CN5CCCCC5)cc4)sc23)cc1Cl`, 10 nM.
As usually defined, the half-life is the time needed for the level to fall by half in the phase considered. What is called solubility is the concentration that dissolves in the medium under given conditions. One may read the Cmax as the maximum level reached in the sampled fluid or tissue. The term AUC denotes the area under the concentration-time curve, a measure of exposure. Low values mean less exposure, high ones more exposure. Consider `Fc1ccc(Nc2ncnc3nc(Nc4ccc(CCN5CCOCC5)cc4)sc23)cc1Cl`, for which the half-life in data set [2] was 11 min; in [8] it was 108 min. Besides, the solubility is 290 µg/mL (≈ 598 µM) in data set [3] and less than 0.2 µg/mL in [4]. Moreover, in data set [5], the bioavailability was found to be 13%. In [6], this molecule gave a Cmax of 289 ng/mL. Besides, the AUC in data set [7] was 1170 ng·h/mL. In [1], the midpoint of inhibition, the IC50, lay at 15 nM.
Turning to `Fc1ccc(Nc2ncnc3nc(Nc4ccc(CN5CCCC5)cc4)sc23)cc1Cl`, inhibition in data set [1] was half-maximal at 4 nM (IC50).
Same read-out and setting: in the case of `C#Cc1cccc(Nc2ncnc3nc(Nc4ccc(CN5CCOCC5)cc4)sc23)c1` it was 43 nM.
As for `N#Cc1cnc2nc(Nc3ccc(CN4CCOCC4)cc3)sc2c1Nc1ccc(F)c(Cl)c1`, the half-life in data set [2] is 13 min; in [8], 294 min. Also, the solubility was 37 µg/mL (≈ 74.8 µM) in data set [3] and less than 0.2 µg/mL in data set [4]. In data set [5], the bioavailability turned out to be 10.8%. Besides, in [6], the highest level (Cmax) was 28 ng/mL. Also, in [7], the AUC is 184 ng·h/mL.
Regarding `CCc1nccn1Cc1ccc(Nc2nc3ncnc(Nc4ccc(F)c(Cl)c4)c3s2)cc1`, the half-life in data set [2] was 3 min. Besides, the solubility was 300 µg/mL (≈ 625 µM) in data set [3] and less than 0.2 µg/mL in data set [4]. The molecule further came in with an IC50 in [1] of 6 nM.
As for `CN1CCN(Cc2ccc(Nc3nc4ncnc(Nc5ccc(OCc6cccc(F)c6)c(Cl)c5)c4s3)cc2)CC1`, in data set [1], the IC50 is 9 nM.
As to `Fc1ccc(Nc2ncnc3nc(Nc4ccc(CN5CCOCC5)cc4)sc23)cc1Cl`, the half-life is 19 min in data set [2], 113 min in data set [8] and 174 min in data set [12]. The values for the solubility in data set [3] and in [4] were greater than 1000 µg/mL and 1 µg/mL (≈ 2.12 µM), respectively. Moreover, the bioavailability in [5] was found to be 20%; in [9], 67%. For the same molecule, the Cmax in data set [6] turned out to be 527 ng/mL; in data set [10] it was 3850 ng/mL. Moreover, the AUC in data set [7] is 2150 ng·h/mL; in data set [11] it was 10800 ng·h/mL. The molecule further had an IC50 in [1] of 12 nM.
Regarding `OC[C@@H]1CCCN1Cc1ccc(Nc2nc3ncnc(Nc4ccc(F)c(Cl)c4)c3s2)cc1`, the half-life in [2] was greater than 100 min. Also, the solubility was 360 µg/mL (≈ 742 µM) in data set [3] and less than 0.2 µg/mL in data set [4]. The molecule also displayed a bioavailability in data set [5] of 0.3%. In data set [6], the highest level (Cmax) was 2.4 ng/mL. In data set [7], this molecule gave an AUC of 24 ng·h/mL.
Consider `CN(C)Cc1ccc(Nc2nc3ncnc(Nc4ccc(F)c(Cl)c4)c3s2)cc1`, for which the half-life was greater than 100 min in [2] and 192 min in data set [8]. The solubility in [3] is 390 µg/mL (≈ 909 µM); in data set [4], 27 µg/mL (≈ 62.9 µM). In data set [5], the bioavailability came to 9%. Also, the Cmax in data set [6] was determined as 54 ng/mL. The same molecule gave an AUC in [7] of 322 ng·h/mL.
Take `NS(=O)(=O)c1ccc(Nc2nc3ncnc(Nc4cccc(Cl)c4)c3s2)cc1`: the half-life in [2] is greater than 100 min. Further, the solubility in data set [3] and in data set [4] was less than 0.2 µg/mL each time. The molecule further displayed a bioavailability in data set [5] of 0.8%. In data set [6], the Cmax came to 39 ng/mL. The same molecule displayed an AUC in data set [7] of 224 ng·h/mL. Half-maximal inhibition in data set [1] (IC50) required 7 nM.
The molecule `NS(=O)(=O)c1ccc(Nc2nc3ncnc(Nc4c(F)cccc4F)c3s2)cc1` displayed an IC50 in [13] of 19.8 µM.
